Experimental data taken from PubChem BioAssay (NCI).
“And” between values parts separate entries of the source, which are not always exact repeats. Identical values can stand only once.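 96-well plates; 48 h exposure; 5 concentrations. Endpoints by linear interpolation between flanking doses. Not reached: highest tested concentration assigned. At the GI50, growth is halved. At the TGI there is no net growth.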

test system: MDA-MB-231 breast; experiment: NCI tumour cell line growth inhibition, 48 h

SMILES | GI50 [µM] | TGI [µM]
CCCCCCCCCCCCCCCC[N+](C)(C)Cc1ccccc1 | 1.38 | 3.32
O=C1CCCCN1c1ccccc1C#C/C=C\C#Cc1ccccc1C(F)(F)F | 1.16 | 2.71
CN(C)CC1CC/C(=C\c2ccc(O)cc2)C1=O (configuration not stated) | – | 9.22
Cc1ccc(-n2c3nc(=O)[nH]c(=O)c-3cc3cc([N+](=O)[O-])ccc32)cc1 | 17.8 | 44.2
CC1=C2C(=C[C@@](C)(CO)[C@@H]2O)C(=O)[C@](C)(O)C12CC2 | 0.503 | –
CCCOc1cc2ccccc2cc1C(=O)Nc1nc(N)c2c(ccc3nccc32)[nH]1 | 1.06 | 2.85
CC1(C)OC1COc1c2occc2cc2ccc(=O)oc12 (configuration not stated) | – | > 100
CCCCCCCCCCCCC(O)c1ccc(C#CCCCCCCCCCO)o1 (configuration not stated) | 20.4 | 36.2

test system: CAKI-1 renal; experiment: NCI tumour cell line growth inhibition, 48 h

SMILES | TGI | GI50
COC(=O)CC(c1ccccc1)C1(c2ccccc2)SCCS1 (configuration not stated) | > 290 µM | –
CCOC(=O)C1=C(C(=O)OCC)C2c3ccccc3C=CN2C(C(=O)OCC)=C(SC)S1 (configuration not stated) | > 100 µM | –
CCCCCCCCCCCCCCCC[N+](C)(C)Cc1ccccc1 | 35.6 µM and 21.7 µM | 9.52 µM and 3.74 µM
CC(=O)NNc1nc(C)c(C(=O)/C=C/c2ccc(NC(C)=O)cc2)s1 | > 100 µM | –
NC(=O)c1ccccc1NC(=O)C(=O)C(C(=O)c1ccc(Cl)c(Cl)c1)C1OC(=O)c2ccccc21 (configuration not stated) | > 100 µM | –
S=c1sc2c(n1-c1ccccc1)NC=NC2S (configuration not stated) | > 100 µM | –
Cc1ccc(/C=C/C(=O)CCN(C)C)cc1 | 26.8 µM | –
Cc1cc2c(C)[nH]nc2c(C(=O)O)c1C | > 100 µM | –
N#C/C(=C\c1cccc(Cl)c1Cl)c1ccccc1 | 77.7 µM | –
C/C(=N/Nc1ccc([N+](=O)[O-])cc1[N+](=O)[O-])C(CC(C(=O)NCc1ccccc1)/C(C)=N\Nc1ccc([N+](=O)[O-])cc1[N+](=O)[O-])C(=O)NCc1ccccc1 (configuration not stated) | 20.4 µM | –
N[C@@H]1CCCC[C@@H]1N.O=P([O-])([O-])CN(CCN(CP(=O)([O-])[O-])CP(=O)([O-])[O-])CP(=O)([O-])[O-].[Pt+2] | > 25 µM | > 25 µM
O=C1CCCCN1c1ccccc1C#C/C=C\C#Cc1ccccc1C(F)(F)F | 9.83 µM | 1.68 µM
O=C(/C=C/c1ccc([N+](=O)[O-])cc1)c1ccc(NCc2nc3ccccc3[nH]2)cc1 | 21.2 µM | –
Cc1cccc(C)c1NC(=O)CCCC(=O)C1/C(=N/NC(=O)CC#N)CCC/C1=N\NC(=O)CC#N (configuration not stated) | > 100 µM | –
CN(C)CC1CC/C(=C\c2ccc(O)cc2)C1=O (configuration not stated) | 3.24 µM | –
O=c1ccc2ccccc2cc1[O-].O=c1ccc2ccccc2cc1[O-].[O]=[U+2]=[O] | 51.9 µM | 9.44 µM

SMILES | TGI | GI50
Cc1ccc(-n2c3nc(=O)[nH]c(=O)c-3cc3cc([N+](=O)[O-])ccc32)cc1 | 39.2 µM | 10.4 µM
COC(=O)C(CCCN1C(=O)c2ccccc2C1=O)C(=O)OC | > 100 µM | –
COc1nc(NC2OC(COC(C)=O)C(OC(C)=O)C(OC(C)=O)C2OC(C)=O)c2c(OC(C)=O)cc(=O)oc2n1 (configuration not stated) | > 100 µM | –
CC(C)(C)c1cc2c(O)c3cccc4c(=O)c5cccc6c5-c(c34)c2c(c1)c6=O | > 100 µM | –
CC1=C2C(=C[C@@](C)(CO)[C@@H]2O)C(=O)[C@](C)(O)C12CC2 | – | 0.178 µM
O=C1C=CC(=O)c2nc3c(cc21)CCC3 | 31.4 µM | –
CCCCN(CCCC)C(=O)C(=O)C(C(=O)c1ccc(OC)cc1)c1ccc(OC)cc1 (configuration not stated) | > 100 µM | –
C=C(C)CCOC(c1ccccc1)(c1ccccc1)c1ccccc1 | > 100 µM | –
COc1ccc(C)cc1-c1cc(Sc2ccccc2)c(-c2cc(C)ccc2OC)o1 | > 31.6 µM | –
CC(=O)O/N=C(/C)c1ccccc1O | > 100 µM | –
CCCOc1cc2ccccc2cc1C(=O)Nc1nc(N)c2c(ccc3nccc32)[nH]1 | 3.31 µM | 0.62 µM
CC1(C)OC1COc1c2occc2cc2ccc(=O)oc12 (configuration not stated) | > 100 µM | –
CCCCCCCCCCCCC(O)c1ccc(C#CCCCCCCCCCO)o1 (configuration not stated) | 33.1 µM | 18.6 µM
O=C(Nc1ccccc1-c1nn(C(=S)Nc2ccccc2)c(=S)n(C(=S)Nc2ccccc2)c1=O)C(F)(F)F | > 100 µM | –
O=c1c(-c2ccccc2)c2oc(c1-c1ccccc1)CSCc1cccc(c1)CSC2 | > 100 µM | –
CN(C)CCn1c2c3ccccc3ccc2c2oc(=O)c3ccccc3c21 | 25.9 µM | –

test system: M14 melanoma; experiment: NCI tumour cell line growth inhibition, 48 h

SMILES | TGI [µM] | GI50 [µM]
CCOC(=O)C1=C(C(=O)OCC)C2c3ccccc3C=CN2C(C(=O)OCC)=C(SC)S1 (configuration not stated) | > 100 | –
CCCCCCCCCCCCCCCC[N+](C)(C)Cc1ccccc1 | 2.49 | 1.2
CCCCCC[C@@H]1CCC2C(CO)[C@@H](O)CC[C@@H]2C1 (some centres not stated) | 31.3 | –
NC(=O)c1ccccc1NC(=O)C(=O)C(C(=O)c1ccc(Cl)c(Cl)c1)C1OC(=O)c2ccccc21 (configuration not stated) | > 100 | –
S=c1sc2c(n1-c1ccccc1)NC=NC2S (configuration not stated) | > 100 | –
Cc1ccc(/C=C/C(=O)CCN(C)C)cc1 | 38.7 | –
Cc1ccc(Oc2ccc(C)cc2N)cc1 | > 100 | –
N#C/C(=C\c1cccc(Cl)c1Cl)c1ccccc1 | > 100 | –
C/C(=N/Nc1ccc([N+](=O)[O-])cc1[N+](=O)[O-])C(CC(C(=O)NCc1ccccc1)/C(C)=N\Nc1ccc([N+](=O)[O-])cc1[N+](=O)[O-])C(=O)NCc1ccccc1 (configuration not stated) | 21.9 | –
N[C@@H]1CCCC[C@@H]1N.O=P([O-])([O-])CN(CCN(CP(=O)([O-])[O-])CP(=O)([O-])[O-])CP(=O)([O-])[O-].[Pt+2] | > 25 | > 25
COc1ccc(OC)c(N2CC(N)C2=O)c1 (configuration not stated) | > 100 | –
O=C1CCCCN1c1ccccc1C#C/C=C\C#Cc1ccccc1C(F)(F)F | 2.29 | 0.909
